Measurements: patent US20250177349A1, “ARYL ALKYNAMIDE DERIVATIVES” (Astellas Pharma, Inc., priority 2022, published 2025)

Tested on: drug-induced Sjogren's syndrome-like salivary dysfunction
Assay: Test on drug-induced Sjogren's syndrome-like salivary dysfunction in mice
Format: in vivo
Conditions: female C57BL/6J mice, DMXAA 20 mg/kg s.c. four times weekly, test compound orally once a day for 8 days; FIGS. 1-3
Description: Female C57BL/6J mice (8-10-weeks-old) were injected subcutaneously with 20 mg/kg of DMXAA or its vehicle, 5% NaHCO3, four times at weekly intervals. From the day after the last DMXAA challenge, mice were orally administered the test compound or its vehicle once a day for 8 days. On the following day, saliva was collected from mice using a cotton swab under awake conditions, and saliva weight during 15 min was measured and evaluated as an indicator of salivary gland function.

Row | Compound | saliva production (saliva weight during 15 min)
1 | O=C(C#Cc1ccc(-c2ccccc2)c(C(F)(F)F)c1)N1C[C@@H](O)[C@@H](O)C1 [Example 33, 1-[(3R,4S)-3,4-dihydroxypyrrolidin-1-yl]-3-[2-(trifluoromethyl)[1,1′-biphenyl]-4-yl]prop-2-yn-1-one] | significantly improved saliva production
2 | NC(=O)C1CCN(C(=O)C#Cc2ccc(-c3ccccc3)c(C(F)(F)F)c2)CC1 [Example 34, 1-{3-[2-(trifluoromethyl)[1,1′-biphenyl]-4-yl]prop-2-ynoyl}piperidine-4-carboxamide] | significantly improved saliva production
3 | N=S1(=O)CCN(C(=O)C#Cc2ccc(-c3ccccc3)c(C(F)(F)F)c2)CC1 [Example 99, 1-imino-4-{3-[2-(trifluoromethyl)[1,1′-biphenyl]-4-yl]prop-2-ynoyl}-1λ^6-thiomorpholin-1-one] | significantly improved saliva production
